Test results from US7115296B2, “N-alkylaspartyl amide derivative and sweetening agent” (Ajinomoto Co., Inc., priority 2001, dated 2006).
Like-named read-outs stand apart in the source and are kept apart here. Peptide text beside a SMILES is read from it.

Assays:
[1] = sensory (organoleptic) test of sweetening potency
[2] = times that of sucrose; reported in WO 94/11391; cited from earlier work
[3] = physchem; settings: buffer, pH 3
[4] = times the sweetness of sugar, sensory test
[5] = values compared to sweetening potency of a 4% aqueous solution of sucrose

In the case of `COc1ccc(CCCN[C@@H](CC(=O)O)C(=O)N[C@H](C)C(O)CC2CCCCC2)cc1O` (mixture of isomers) [compound 12, N-[3-(3-hydroxy-4-methoxyphenyl)propyl]-α-L-aspartyl N-(1R,2RS)-1-methyl-2-hydroxy-3-cyclohexylpropyl amide], the Sweetening potency [1, 4] is reported as 4000 times and the “Sweetening potency” value [1, 5] is reported as 4000.

For `COC(=O)[C@H](Cc1ccccc1)NC(=O)[C@H](CC(=O)O)NCCC(C)(C)C` [N-[N-(3,3-dimethylbutyl)-L-α-aspartyl]-L-phenylalanine 1-methyl ester], the Sweetening potency [2] is given as 10000 times.

In the case of `COC(=O)[C@H](Cc1ccccc1)NC(=O)[C@@H](N)CC(=O)O` [aspartame] (H-Asp-Phe-OMe), the half-life [3] is reported as ~30 h.

For `CC[C@@H](C[C@H](O)[C@@H](C)NC(=O)[C@H](CC(=O)O)NCCCc1ccc(OC)c(O)c1)c1ccccc1` [compound 1, N-[3-(3-hydroxy-4-methoxyphenyl)propyl]-α-L-aspartyl N-(1R,2S,4S)-1-methyl-2-hydroxy-4-phenylhexyl amide], the Sweetening potency [1, 4] was “approximately 15000 times”, the Sweetening potency ([1]; times the sweetness of sugar, sensory test, listed as Compound No.1) was 15000 times and the “Sweetening potency” value [1, 5] was 15000.

With `CC[C@@H](C[C@H](O)[C@@H](C)NC(=O)[C@H](CC(=O)O)NCCCc1ccc(O)c(OC)c1)c1ccccc1` [compound 2, N-[3-(3-methoxy-4-hydroxyphenyl)propyl]-α-L-aspartyl N-(1R,2S,4S)-1-methyl-2-hydroxy-4-phenylhexyl amide] the Sweetening potency [1, 4] was 10000 times and the “Sweetening potency” value [1, 5] was 10000.

In the case of `CC[C@@H](C[C@H](O)[C@@H](C)NC(=O)[C@H](CC(=O)O)NCCCc1ccc(OC)cc1O)c1ccccc1` [compound 3, N-[3-(2-hydroxy-4-methoxyphenyl)propyl]-α-L-aspartyl N-(1R,2S,4S)-1-methyl-2-hydroxy-4-phenylhexyl amide], the Sweetening potency [1, 4] is reported as 6000 times and the “Sweetening potency” value [1, 5] is reported as 6000.

For `CC[C@@H](C[C@H](O)[C@@H](C)NC(=O)[C@H](CC(=O)O)NCCCc1ccc(O)cc1O)c1ccccc1` [compound 4, N-[3-(2,4-dihydroxyphenyl)propyl]-α-L-aspartyl N-(1R,2S,4S)-1-methyl-2-hydroxy-4-phenylhexyl amide], the Sweetening potency [1, 4] was 10000 times and the “Sweetening potency” value [1, 5] was 10000.

For `CC[C@@H](C[C@H](O)[C@@H](C)NC(=O)[C@H](CC(=O)O)NCCCc1ccc(C)c(O)c1)c1ccccc1` [compound 5, N-[3-(3-hydroxy-4-methylphenyl)propyl]-α-L-aspartyl N-(1R,2S,4S)-1-methyl-2-hydroxy-4-phenylhexyl amide], the Sweetening potency [1, 4] was 6000 times and the “Sweetening potency” value [1, 5] was 6000.

For `CC[C@@H](C[C@H](O)[C@@H](C)NC(=O)[C@H](CC(=O)O)NCCCc1ccc(O)c(C)c1)c1ccccc1` [compound 6, N-[3-(3-methyl-4-hydroxyphenyl)propyl]-α-L-aspartyl N-(1R,2S,4S)-1-methyl-2-hydroxy-4-phenylhexyl amide], the Sweetening potency [1, 4] was 4000 times and the “Sweetening potency” value [1, 5] was 4000.

With `CC[C@@H](C[C@H](O)[C@@H](C)NC(=O)[C@H](CC(=O)O)NCCCc1ccc(O)cc1)c1ccccc1` [compound 7, N-[3-(4-hydroxyphenyl)propyl]-α-L-aspartyl N-(1R,2S,4S)-1-methyl-2-hydroxy-4-phenylhexyl amide] the Sweetening potency [1, 4] was 6000 times and the “Sweetening potency” value [1, 5] was 6000.

For `CC[C@@H](C[C@H](O)[C@@H](C)NC(=O)[C@H](CC(=O)O)NCCCc1ccc(OC)cc1)c1ccccc1` [compound 8, N-[3-(4-methoxyphenyl)propyl]-α-L-aspartyl N-(1R,2S,4S)-1-methyl-2-hydroxy-4-phenylhexyl amide], the Sweetening potency [1, 4] was 3000 times and the “Sweetening potency” value [1, 5] was 3000.

With `CC[C@@H](C[C@H](O)[C@@H](C)NC(=O)[C@H](CC(=O)O)NCCC(C)(C)c1ccc(OC)c(O)c1)c1ccccc1` [compound 9, N-[3-methyl-3-(3-hydroxy-4-methoxyphenyl)butyl]-α-L-aspartyl N-(1R,2S,4S)-1-methyl-2-hydroxy-4-phenylhexyl amide] the Sweetening potency [1, 4] was “approximately 15000 times”, the Sweetening potency ([1]; times the sweetness of sugar, sensory test, listed as Compound No.9) was 15000 times and the “Sweetening potency” value [1, 5] was 15000.

In the case of `CC[C@@H](C[C@H](O)[C@@H](C)NC(=O)[C@H](CC(=O)O)NCCC(C)(C)c1ccc(O)c(C)c1)c1ccccc1` [compound 10, N-[3-methyl-3-(3-methyl-4-hydroxyphenyl)butyl]-α-L-aspartyl N-(1R,2S,4S)-1-methyl-2-hydroxy-4-phenylhexyl amide], the Sweetening potency [1, 4] is reported as 15000 times and the “Sweetening potency” value [1, 5] is reported as 15000.

For `CC[C@H](C[C@H](O)[C@@H](C)NC(=O)[C@H](CC(=O)O)NCCCc1ccc(OC)c(O)c1)c1ccccc1` [compound 11, N-[3-(3-hydroxy-4-methoxyphenyl)propyl]-α-L-aspartyl N-(1R,2S,4R)-1-methyl-2-hydroxy-4-phenylhexyl amide], the Sweetening potency [1, 4] was 4000 times and the “Sweetening potency” value [1, 5] was 4000.

In the case of `COc1ccc(CCCN[C@@H](CC(=O)O)C(=O)N[C@H](C)[C@H](O)CC2CCCCC2)cc1O` [compound 13, N-[3-(3-hydroxy-4-methoxyphenyl)propyl]-α-L-aspartyl N-(1R,2R)-1-methyl-2-hydroxy-3-cyclohexylpropyl amide], the Sweetening potency [1, 4] is reported as 5000 times and the “Sweetening potency” value [1, 5] is reported as 5000.

For `COc1ccc(C(C)(C)CCN[C@@H](CC(=O)O)C(=O)N[C@H](C)[C@H](O)CC2CCCCC2)cc1O` [compound 14, N-[3-methyl-3-(3-hydroxy-4-methoxyphenyl)butyl]-α-L-aspartyl N-(1R,2R)-1-methyl-2-hydroxy-3-cyclohexylpropyl amide], the Sweetening potency [1, 4] was 5000 times and the “Sweetening potency” value [1, 5] was 5000.

With `CC[C@@H](C[C@H](O)[C@@H](C)NC(=O)[C@H](CC(=O)O)NCCC(C)(C)CCO)c1ccccc1` [compound 15, N-(3,3-dimethyl-5-hydroxypentyl)-α-L-aspartyl N-(1R,2S,4S)-1-methyl-2-hydroxy-4-phenylhexyl amide] the Sweetening potency [1, 4] was 6500 times and the “Sweetening potency” value [1, 5] was 6500.

In the case of `CC[C@@H](C[C@H](O)[C@@H](C)NC(=O)[C@H](CC(=O)O)NCCC(C)(C)CCCO)c1ccccc1` [compound 16, N-(3,3-dimethyl-6-hydroxyhexyl)-α-L-aspartyl N-(1R,2S,4S)-1-methyl-2-hydroxy-4-phenylhexyl amide], the Sweetening potency [1, 4] is reported as 4500 times and the “Sweetening potency” value [1, 5] is reported as 4500.
